This note sets out measurements from patent publication US11254663B2 (BRISTOL-MYERS SQUIBB COMPANY, priority 2019, dated 2022).

Structures are written as SMILES. Like-named read-outs stand apart in the source and are kept apart here.

The assay deals with FXR (Homo sapiens (Human), UniProt Q96RI1). The assay can be described thus: transient human FXR/Gal4-luciferase reporter assay. The assay is classed as cell-based. In short, it runs like this:
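HEK293 cells stably carrying a 5×Gal4 response element–firefly luciferase reporter were transiently transfected overnight with a Gal4 DBD–human FXR LBD fusion plasmid. Compound was added in DMSO and cells were incubated overnight at 37 °C, 5% CO2. Activity was read as Steady-Glo luminescence.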
For orientation: In a reporter assay the amount or activity of a reporter protein is the signal.

Setting [1] is: Gal4-hFXR fusion construct, HEK293 reporter cells, response relative to 8 μM GW-4064.

FXR, sequence (Q96RI1 262-486): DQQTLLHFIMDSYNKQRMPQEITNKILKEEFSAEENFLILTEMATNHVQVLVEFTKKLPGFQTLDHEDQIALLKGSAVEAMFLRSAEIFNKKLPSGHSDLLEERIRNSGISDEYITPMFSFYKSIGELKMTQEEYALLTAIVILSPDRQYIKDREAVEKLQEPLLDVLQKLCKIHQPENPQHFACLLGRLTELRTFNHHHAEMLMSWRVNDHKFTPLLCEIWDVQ

A word on the EC50: it is the concentration that produces a half-maximal response. Take `Cc1cc(-c2cccc(N(CC34CCC(c5nc(C6CC6)no5)(CC3)CC4)C(=O)C34CC(F)(C3)C4)c2)cnc1F` [Example 247, N-((4-(3-cyclopropyl-1,2,4-oxadiazol-5-yl)bicyclo[2.2.2]octan-1-yl)methyl)-3-fluoro-N-(3-(6-fluoro-5-methylpyridin-3-yl)phenyl)bicyclo[1.1.1]pentane-1-carboxamide]: under setting [1], a half-maximal response (EC50) required 341 nM.

`O=C(N(CC12CCC(c3nc(C4CC4)no3)(CC1)CC2)c1cccc(-c2ccn3cnnc3c2)c1)C12CC(F)(C1)C2` [Example 307, N-(3-([1,2,4]triazolo[4,3-a]pyridin-7-yl)phenyl)-N-((4-(3-cyclopropyl-1,2,4-oxadiazol-5-yl)bicyclo[2.2.2]octan-1-yl)methyl)-3-fluorobicyclo[1.1.1]pentane-1-carboxamide]: under setting [1], the half-maximal effective concentration (EC50) worked out at 832 nM.

The compound `CC(C)(C)COC(=O)N(CC12CCC(c3noc(C(C)(F)F)n3)(CC1)CC2)c1cc(-c2ccc(C(C)(C)O)cc2)c(F)cn1` [Example 619, Neopentyl ((4-(5-(1,1-difluoroethyl)-1,2,4-oxadiazol-3-yl)bicyclo[2.2.2]octan-1-yl)methyl) (5-fluoro-4-(4-(2-hydroxypropan-2-yl)phenyl)pyridin-2-yl) carbamate] returned an EC50 under setting [1] of 28 nM.

In turn, `CCOc1ncc(-c2cccc(N(CC34CCC(c5noc(C(C)(F)F)n5)(CC3)CC4)C(=O)C34CC(F)(C3)C4)c2)cn1` [Example 529, N-((4-(5-(1,1-difluoroethyl)-1,2,4-oxadiazol-3-yl)bicyclo[2.2.2]octan-1-yl)methyl)-N-(3-(2-ethoxypyrimidin-5-yl)phenyl)-3-fluorobicyclo[1.1.1]pentane-1-carboxamide] yielded a half-maximal effective concentration (EC50) of 106 nM.

For the compound `O=C(N(CC12CCC(c3nc(C4CC4)no3)(CC1)CC2)c1cccc(-c2nccc(C(F)(F)F)n2)c1)C12CC(F)(C1)C2` [Example 291, N-((4-(3-cyclopropyl-1,2,4-oxadiazol-5-yl)bicyclo[2.2.2]octan-1-yl)methyl)-3-fluoro-N-(3-(4-(trifluoromethyl)pyrimidin-2-yl)phenyl)bicyclo[1.1.1]pentane-1-carboxamide], under setting [1], the response was half-maximal at 439 nM (EC50).

As for `CCOc1ncc(-c2cccc(N(CC34CCC(c5nc(C(C)(C)C)no5)(CC3)CC4)C(=O)[C@H]3C[C@@H](OC)C3)c2)cn1` [Example 502, (1S,3S)—N-((4-(3-(tert-butyl)-1,2,4-oxadiazol-5-yl)bicyclo[2.2.2]octan-1-yl)methyl)-N-(3-(2-ethoxypyrimidin-5-yl)phenyl)-3-methoxycyclobutane-1-carboxamide], the EC50 turned out to be 689 nM.

The compound `CS(=O)(=O)Nc1ncc(-c2cccc(N(CC34CCC(c5nc(C6CC6)no5)(CC3)CC4)C(=O)C34CC(F)(C3)C4)c2)cn1` [Example 272, N-((4-(3-cyclopropyl-1,2,4-oxadiazol-5-yl)bicyclo[2.2.2]octan-1-yl)methyl)-3-fluoro-N-(3-(2-(methylsulfonamido)pyrimidin-5-yl)phenyl)bicyclo[1.1.1]pentane-1-carboxamide] had an EC50 under setting [1] of 559 nM.

Under setting [1], `Cc1nc2ncc(-c3cccc(N(CC45CCC(c6noc(C(C)(C)C)n6)(CC4)CC5)C(=O)C45CC(F)(C4)C5)c3)cc2s1` [Example 449, N-((4-(5-(tert-butyl)-1,2,4-oxadiazol-3-yl)bicyclo[2.2.2]octan-1-yl)methyl)-3-fluoro-N-(3-(2-methylthiazolo[4,5-b]pyridin-6-yl)phenyl)bicyclo[1.1.1]pentane-1-carboxamide] showed an EC50 of 98 nM.

Compound `O=C(N(CC12CCC(c3nc(C4CC4)no3)(CC1)CC2)c1cccc(-c2cccn3ncnc23)c1)C12CC(F)(C1)C2` [Example 309, N-(3-([1,2,4]triazolo[1,5-a]pyridin-8-yl)phenyl)-N-((4-(3-cyclopropyl-1,2,4-oxadiazol-5-yl)bicyclo[2.2.2]octan-1-yl)methyl)-3-fluorobicyclo[1.1.1]pentane-1-carboxamide] came in with an EC50 under setting [1] of 221 nM.

Compound `CC(C)Oc1ccc(-c2cccc(N(CC34CCC(c5cc(C(C)(F)F)nn5C)(CC3)CC4)C(=O)NC(C)(C)C)c2)cc1` [Example 659, 3-(tert-butyl)-1-((4-(3-(1,1-difluoroethyl)-1-methyl-1H-pyrazol-5-yl)bicyclo[2.2.2]octan-1-yl)methyl)-1-(4′-isopropoxy-[1,1′-biphenyl]-3-yl)urea] registered an EC50 under setting [1] of 53 nM.

Under setting [1], `CC(C)c1nc(C23CCC(CN(C(=O)C45CC(F)(C4)C5)c4cccc(-c5ccc(NS(C)(=O)=O)cc5)c4)(CC2)CC3)no1` [Example 430, 3-fluoro-N-((4-(5-isopropyl-1,2,4-oxadiazol-3-yl)bicyclo[2.2.2]octan-1-yl)methyl)-N-(4′-(methylsulfonamido)-[1,1′-biphenyl]-3-yl)bicyclo[1.1.1]pentane-1-carboxamide] yielded an EC50 of 40 nM.

For `CC(C)Oc1ccc(-c2ccnc(N(CC34CCC(c5ccc(C(C)(F)F)cn5)(CC3)CC4)C(=O)[C@H]3C[C@@](C)(OC(F)F)C3)c2)cc1` [Example 640, (cis)-N-((4-(5-(1,1-difluoroethyl)pyridin-2-yl)bicyclo[2.2.2]octan-1-yl)methyl)-3-(difluoromethoxy)-N-(4-(4-isopropoxyphenyl)pyridin-2-yl)-3-methylcyclobutane-1-carboxamide], under setting [1], the response was half-maximal at 27 nM (EC50).

`CC(C)(O)c1ccc(-c2cccc(N(CC34CCC(c5noc(C(C)(C)F)n5)(CC3)CC4)C(=O)[C@H]3C[C@@](C)(O)C3)c2)cc1` [Example 577, (cis)-N-((4-(5-(2-fluoropropan-2-yl)-1,2,4-oxadiazol-3-yl)bicyclo[2.2.2]octan-1-yl)methyl)-3-hydroxy-N-(4′-(2-hydroxypropan-2-yl)-[1,1′-biphenyl]-3-yl)-3-methylcyclobutane-1-carboxamide] had an EC50 under setting [1] of 23 nM.

Compound `CC(C)(C)c1nc(C23CCC(CN(C(=O)C45CC(F)(C4)C5)c4cccc(-c5ccc(OC(F)F)cn5)c4)(CC2)CC3)no1` [Example 455, N-((4-(5-(tert-butyl)-1,2,4-oxadiazol-3-yl)bicyclo[2.2.2]octan-1-yl)methyl)-N-(3-(5-(difluoromethoxy)pyridin-2-yl)phenyl)-3-fluorobicyclo[1.1.1]pentane-1-carboxamide] yielded an EC50 under setting [1] of 17 nM.

In the case of `CC(C)(C)c1nc(C23CCC(CN(C(=O)C45CC(F)(C4)C5)c4cccc(-c5cnc6nc(C7CC7)sc6c5)c4)(CC2)CC3)no1` [Example 458, N-((4-(5-(tert-butyl)-1,2,4-oxadiazol-3-yl)bicyclo[2.2.2]octan-1-yl)methyl)-N-(3-(2-cyclopropylthiazolo[4,5-b]pyridin-6-yl)phenyl)-3-fluorobicyclo[1.1.1]pentane-1-carboxamide], a half-maximal response under setting [1] (EC50) required 251 nM.

Under setting [1], `CC(C)(C)c1noc(C23CCC(CN(C(=O)C45CC(F)(C4)C5)c4cccc(-c5ccc(OC(F)F)cn5)c4)(CC2)CC3)n1` [Example 373, N-((4-(3-(tert-butyl)-1,2,4-oxadiazol-5-yl)bicyclo[2.2.2]octan-1-yl)methyl)-N-(3-(5-(difluoromethoxy)pyridin-2-yl)phenyl)-3-fluorobicyclo[1.1.1]pentane-1-carboxamide] had an EC50 of 88 nM.

Turning to `CCOc1ncc(-c2cccc(N(CC34CCC(c5ccc(C6(C#N)CC6)cc5)(CC3)OC4)C(=O)C34CC(F)(C3)C4)c2)cn1` [Example 352, N-((1-(4-(1-cyanocyclopropyl)phenyl)-2-oxabicyclo[2.2.2]octan-4-yl)methyl)-N-(3-(2-ethoxypyrimidin-5-yl)phenyl)-3-fluorobicyclo[1.1.1]pentane-1-carboxamide], the EC50 under setting [1] came out at 167 nM.

Compound `COc1ncc(-c2ccnc(N(CC34CCC(c5noc(C(C)(C)C)n5)(CC3)CC4)C(=O)C34CC(F)(C3)C4)c2)cn1` [Example 538, N-((4-(5-(tert-butyl)-1,2,4-oxadiazol-3-yl)bicyclo[2.2.2]octan-1-yl)methyl)-3-fluoro-N-(4-(2-methoxypyrimidin-5-yl)pyridin-2-yl)bicyclo[1.1.1]pentane-1-carboxamide] returned an EC50 of 121 nM.

With `CC(C)(C)c1nc(C23CCC(CN(C(=O)C45CC(F)(C4)C5)c4cc(-c5cnc(C6CC6)nc5)ccn4)(CC2)CC3)no1` [Example 539, N-((4-(5-(tert-butyl)-1,2,4-oxadiazol-3-yl)bicyclo[2.2.2]octan-1-yl)methyl)-N-(4-(2-cyclopropylpyrimidin-5-yl)pyridin-2-yl)-3-fluorobicyclo[1.1.1]pentane-1-carboxamide], the EC50 is 119 nM.

Consider `CS(=O)(=O)Nc1ccc(-c2cccc(N(CC34CCC(c5nc(C6CC6)no5)(CC3)CC4)C(=O)C34CC(F)(C3)C4)c2)cn1` [Example 270, N-((4-(3-cyclopropyl-1,2,4-oxadiazol-5-yl)bicyclo[2.2.2]octan-1-yl)methyl)-3-fluoro-N-(3-(6-(methylsulfonamido)pyridin-3-yl)phenyl)bicyclo[1.1.1]pentane-1-carboxamide], for which, under setting [1], a half-maximal effect (EC50) was put at 442 nM.

Turning to `CC(C)(O)c1ccc(-c2ccnc(N(CC34CCC(c5noc(C(C)(C)F)n5)(CC3)CC4)C(=O)OC(C)(C)C(F)(F)F)c2)cc1` [Example 634, 1,1,1-trifluoro-2-methylpropan-2-yl((4-(5-(2-fluoropropan-2-yl)-1,2,4-oxadiazol-3-yl)bicyclo[2.2.2]octan-1-yl)methyl)(4-(4-(2-hydroxypropan-2-yl)phenyl)pyridin-2-yl) carbamate], under setting [1], the response was half-maximal at 31 nM (EC50).

Compound `Cc1nc2ncc(-c3cccc(N(CC45CCC(c6nc(C(C)C)no6)(CC4)CC5)C(=O)C45CC(F)(C4)C5)c3)cc2s1` [Example 389, 3-fluoro-N-((4-(3-isopropyl-1,2,4-oxadiazol-5-yl)bicyclo[2.2.2]octan-1-yl)methyl)-N-(3-(2-methylthiazolo[4,5-b]pyridin-6-yl)phenyl)bicyclo[1.1.1]pentane-1-carboxamide] gave an EC50 under setting [1] of 61 nM.

For `CC(C)Oc1ccc(-c2cccc(N(CC34CCC(c5noc(C(C)(C)F)n5)(CC3)CC4)C(=O)OC(C)(C)C(F)(F)F)c2)cc1` [Example 584, 1,1,1-trifluoro-2-methylpropan-2-yl ((4-(5-(2-fluoropropan-2-yl)-1,2,4-oxadiazol-3-yl)bicyclo[2.2.2]octan-1-yl)methyl)(4′-isopropoxy-[1,1′-biphenyl]-3-yl)carbamate], the concentration for a half-maximal effect (EC50) under setting [1] was 31 nM.
